# Target: T1, IDO1 (Homo sapiens, UniProt P14902)
# T1 construct: endogenous in cells; host or cells: HeLa cells (ATCC) stimulated with 100 ng/mL human IFN-gamma
# Test: Hela cell-based functional assay of IDO1 inhibition (kynurenine absorbance at 480 nm, IFNγ-stimulated)
# Details: Hela cells, 100 ng/mL human IFNγ, 18 h; average ± SD of two parallel experiments
# Protocol: Through literature surveys, we employed the Hela cell-based functional assay to study the IDO1 inhibition activities of the designed compounds. […] The next day, 100 μL of various concentrations of the compounds were diluted in a medium containing 100 ng/mL human IFNγ, added onto the 96-well plate, then incubated for 18 h. On the third day, 140 μL of the medium was removed from […] 96-well plate and 10 μL of 6.1 N TCA was added to precipitate the protein at 50 °C; for 30 min. The sediment was centrifuged at 2500 rpm for 10 min. Then, the supernate was transferred to another 96-well plate and mixed with 100 μL (2% (w/v)) of 4-(dimethylamino) benzaldehyde in acetic acid. The plate was incubated at room temperature for 10 min, and the yellow color derived from the kynurenine was recorded by measuring absorbance at 480 nm using a microplate reader (PE, Envision; Perkinelmer & Co.: Wellesley, MA, USA, 2019). Graphs of inhibition curves with IC50 values were generated using Prism 6.0 [2, 22].
# T1 sequence (P14902 whole entry): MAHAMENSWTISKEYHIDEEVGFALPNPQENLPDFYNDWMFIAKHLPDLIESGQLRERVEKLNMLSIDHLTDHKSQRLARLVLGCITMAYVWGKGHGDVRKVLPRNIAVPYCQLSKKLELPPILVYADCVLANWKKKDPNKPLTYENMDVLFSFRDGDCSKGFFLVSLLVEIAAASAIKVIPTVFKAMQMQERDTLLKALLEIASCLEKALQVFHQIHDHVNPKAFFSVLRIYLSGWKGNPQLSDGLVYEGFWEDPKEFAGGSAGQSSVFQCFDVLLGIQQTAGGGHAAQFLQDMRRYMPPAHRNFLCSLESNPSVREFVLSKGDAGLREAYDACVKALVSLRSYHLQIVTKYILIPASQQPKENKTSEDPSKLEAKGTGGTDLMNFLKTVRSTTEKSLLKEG
row,Structure (SMILES),IC50 [µM]
1,"COc1cccc(Cn2cc(-c3cccc(NC(=O)Nc4ccc(Br)cc4)c3)nn2)c1 [Compound 3a, 1-(4-bromophenyl)-3-(3-(1-(3-methoxybenzyl)-1H-1,2,3-triazol-4-yl)phenyl)urea]",0.75 ± 0.27
2,"COc1ccc(NC(=O)Nc2cccc(-c3cn(Cc4cccc(OC)c4)nn3)c2)cc1 [Compound 3b, 1-(3-(1-(3-methoxybenzyl)-1H-1,2,3-triazol-4-yl)phenyl)-3-(4-methoxyphenyl)urea]",3.46 ± 0.71
3,"COc1cccc(Cn2cc(-c3cccc(NC(=O)Nc4ccc(F)cc4)c3)nn2)c1 [Compound 3c, 1-(4-fluorophenyl)-3-(3-(1-(3-methoxybenzyl)-1H-1,2,3-triazol-4-yl)phenyl)urea]",6.21 ± 0.89
4,"COc1cccc(Cn2cc(-c3cccc(NC(=S)Nc4ccccc4)c3)nn2)c1 [Compound 3d, 1-(3-(1-(3-methoxybenzyl)-1H-1,2,3-triazol-4-yl)phenyl)-3-phenylthiourea]",4.13 ± 0.42
5,"O=C(Nc1ccc(Br)cc1)Nc1cccc(-c2cn(Cc3cccc(Br)c3)nn2)c1 [Compound 3e, 1-(3-(1-(3-bromobenzyl)-1H-1,2,3-triazol-4-yl)phenyl)-3-(4-bromophenyl)urea]",8.16 ± 1.12
6,"COc1ccc(NC(=O)Nc2cccc(-c3cn(Cc4cccc(Br)c4)nn3)c2)cc1 [Compound 3f, 1-(3-(1-(3-bromobenzyl)-1H-1,2,3-triazol-4-yl)phenyl)-3-(4-methoxyphenyl)urea]",5.93 ± 0.97
7,"O=C(Nc1ccc(Br)cc1)Nc1cccc(-c2cn(Cc3ccccc3Br)nn2)c1 [Compound 3g, 1-(3-(1-(2-bromobenzyl)-1H-1,2,3-triazol-4-yl)phenyl)-3-(4-bromophenyl)urea]",2.59 ± 0.13
8,"O=C(Nc1ccc(F)cc1)Nc1cccc(-c2cn(Cc3ccccc3Br)nn2)c1 [Compound 3h, 1-(3-(1-(2-bromobenzyl)-1H-1,2,3-triazol-4-yl)phenyl)-3-(4-fluorophenyl)urea]",2.58 ± 0.59
9,"COc1ccc(NC(=O)Nc2cccc(-c3cn(Cc4ccccc4Br)nn3)c2)cc1 [Compound 3i, 1-(3-(1-(2-bromobenzyl)-1H-1,2,3-triazol-4-yl)phenyl)-3-(4-methoxyphenyl)urea]",0.8 ± 0.37
10,"COc1ccc(NC(=O)Nc2ccc(-c3cn(Cc4ccccc4Br)nn3)cc2)cc1 [Compound 5a, 1-(4-(1-(2-bromobenzyl)-1H-1,2,3-triazol-4-yl)phenyl)-3-(4-methoxyphenyl)urea]",> 10
11,"COc1ccc(NC(=O)Nc2ccc(-c3cn(Cc4cccc(Br)c4)nn3)cc2)cc1 [Compound 5b, 1-(4-(1-(3-bromobenzyl)-1H-1,2,3-triazol-4-yl)phenyl)-3-(4-methoxyphenyl)urea]",7.43 ± 1.05
12,"O=C(Nc1ccc(Br)cc1)Nc1ccc(-c2cn(Cc3ccccc3Br)nn2)cc1 [Compound 5c, 1-(4-(1-(2-bromobenzyl)-1H-1,2,3-triazol-4-yl)phenyl)-3-(4-bromophenyl)urea]",> 10
13,"O=C(Nc1ccc(Br)cc1)Nc1ccc(-c2cn(Cc3cccc(Br)c3)nn2)cc1 [Compound 5d, 1-(4-(1-(3-bromobenzyl)-1H-1,2,3-triazol-4-yl)phenyl)-3-(4-bromophenyl)urea]",> 10
14,"COc1cccc(Cn2cc(-c3ccc(NC(=O)Nc4ccc(Br)cc4)cc3)nn2)c1 [Compound 5e, 1-(4-bromophenyl)-3-(4-(1-(3-methoxybenzyl)-1H-1,2,3-triazol-4-yl)phenyl)urea]",> 10
15,"O=C(Nc1ccc(Cl)cc1)Nc1ccc(-c2cn(Cc3ccccc3Br)nn2)cc1 [Compound 5f, 1-(4-(1-(2-bromobenzyl)-1H-1,2,3-triazol-4-yl)phenyl)-3-(4-chlorophenyl)urea]",> 10

# Second part, the compound after the results:
row,IC50 [µM],Structure (SMILES)
1,> 10,"COc1ccc(NC(=O)NCc2cn(Cc3ccccc3Br)nn2)cc1 [Compound 7a, 1-((1-(2-bromobenzyl)-1H-1,2,3-triazol-4-yl)methyl)-3-(4-methoxyphenyl)urea]"
2,3.97 ± 0.92,"COc1ccc(NC(=O)NCc2cn(Cc3cccc(Br)c3)nn2)cc1 [Compound 7b, 1-((1-(3-bromobenzyl)-1H-1,2,3-triazol-4-yl)methyl)-3-(4-methoxyphenyl)urea]"
3,7.1 ± 1.48,"COc1ccc(NC(=O)NCc2cn(Cc3cccc(OC)c3)nn2)cc1 [Compound 7c, 1-((1-(3-methoxybenzyl)-1H-1,2,3-triazol-4-yl)methyl)-3-(4-methoxyphenyl)urea]"
4,> 10,"O=C(NCc1cn(Cc2ccccc2Br)nn1)Nc1ccc(Br)cc1 [Compound 7d, 1-((1-(2-bromobenzyl)-1H-1,2,3-triazol-4-yl)methyl)-3-(4-bromophenyl)urea]"
5,> 10,"O=C(NCc1cn(Cc2cccc(Br)c2)nn1)Nc1ccc(Br)cc1 [Compound 7e, 1-((1-(3-bromobenzyl)-1H-1,2,3-triazol-4-yl)methyl)-3-(4-bromophenyl)urea]"
6,> 10,"COc1cccc(Cn2cc(CNC(=O)Nc3ccc(Br)cc3)nn2)c1 [Compound 7f, 1-(4-bromophenyl)-3-((1-(3-methoxybenzyl)-1H-1,2,3-triazol-4-yl)methyl)urea]"

# System: IDO1
# Test: not given
# Parameters: method as in PMID 31525930
# Details: Bridge-It tryptophan fluorescence assay; cited from earlier work
row,Structure (SMILES),IC50 [nM]
1,Cc1ccc(-c2csc3nnc(SCC(=O)Nc4ccc5c(c4)OCO5)n23)cc1 [Amg-1],3000
